How the values were obtained:
C18-1/EREBP1 = test: Northern analysis of mRNA accumulation in cultured tobacco cells; type: cell-based
Experimental: FIG. 2. Time course of SA-induced gene expression. Northern analysis of representative differential display genes following treatment of cultured tobacco cells with SA for the indicated time (in hours, except lanes 2-4, which refer to 10, 20, and 30 min.). Twenty micrograms of total RNA was loaded per lane. Blots were hybridized with ddPCR fragments indicated at right or with the β-ATPase gene as a loading control probe. Autoradiogram exposure times were optimized for each gene. […] Labels on left indicate response class.
FIG. 4. Specificity of induction among SA analogs and other signalling compounds. Northern analysis of representative differential display genes following treatment of tobacco cells with 100 μM or 1 mM (left and right side of triangles, respectively) of the following chemicals for 2-2.5 hr: salicylic acid (SA, lanes 4 and 5), acetylSA (ASA, lanes 6 and 7), benzoic acid (BA, lanes 8 and 9), 4-hydroxybenzoic (4HBA, lanes 10 and 11), thiamine (thia, lanes 12 and 13), methyljasmonate (MJ, lanes 14 and 15), abscisic acid (ABA, lanes 16 and 17), or 2,4-dichlorophenoxyacetic acid (2,4-D, lanes 18 and 19). Control treatments are H2O (H, lane 1), 1% ethanol (E, solvent concentration in MJ treatments, lane 2), or 1% DMSO (D, solvent concentration in 2,4D treatments, lane 3). Blots were hybridized with ddPCR fragments indicated at right or with the β-ATPase geneas a loading control probe. Autoradiogram exposure times were optimized for each gene. […] Labels on left indicate response class.
FIG. 5. Dose response of C18-1 and G8-1 to a range of chemicals. Northern analysis of tobacco cell cultures with eight concentrations of SA, ASA, BA, 4HBA, Thia, MJ, ABA, 2,4-D, or H2O for 2-2.5 hr. Concentrations were 0.1, 1, 3, 10, 30, 100, 300 μM or […], as indicated.
FIG. 6. […] Graphic representation of mRNA accumulation of G8-1 ( ), C18se -1 (♦), and IEGT (o) in response to a 2-2.5 hr incubation of cultured tobacco cells with a range of SA concentrations. RNA gel blots were quantitated by phosphorimaging analysis and normalized relative to the β-ATPase gene loading control (not shown).
(§1) Differential display technology (Liang, P. and Pardee, A. B., Science 257: 967-971, 1992) was used to identify genes activated in the presence of SA, CHX and both. Therefore the absence or presence of SA, induction at 3 timepoints of SA-treatment, 2 different concentrations of SA and the effect of addition of CHX were measured. Seven treatments in total were performed. Treatment of tobacco BY-2 suspension cells and leaves and differential display PCR reactions were performed as described (Horvath and Chua (1996), Plant Mol. Biol. 31, 1061-1072).
The kinetics of induction were examined in detail through time course experiments for representative clones of each class (FIG. 2).
The specificity for induction by SA was tested by treating tobacco cells with a range of SA analogs and plant signalling compounds at 0.1 and 1 mM for approximately 2.5 h. […] Several genes, including those for proteinase inhibitors and lipoxygenase (Hildmann, T. et al., Plant Cell 4: 1157-1170, 1992; Melan, M. A. et al., Plant Physiol. 101: 441-450, 1993; Xu, D. et al., Plant Mol. Biol. 22: 573-588, 1993) are known to be under dual regulation by MJ and ABA.
A dose-response curve was made for SA. Therefore tobacco cells were treated with SA in a range of concentrations from 0.1 μM to 2 mM.

Class I genes = test: Northern analysis of poly(A) mRNA from treated tobacco cells; type: cell-based; settings: SA at 2, 4 or 8 h; 71 μM CHX 5 hrs; CHX + 200 μM SA
Experimental: (§2) FIG. 1. Four classes of SA-induced early genes. Northern analysis of genes identified by differential display. Gel-purified DNA fragments produced by ddPCR were either used directly for random-primed labeling and probing of Northern filters (e.g. C7-1, C6-1, and G9-2) or first subcloned and released by restriction digest. Each lane contains 1 μg of poly(A) mRNA from cultured tobacco cells treated with (1) H2O, 4 hr; (2) 200 μM SA, 4 hr; (3) 71 μM CHX, 5 hr; (4) 71 μM CHX, 5 hr plus 200 μM SA after 1 hr (4 hr total); (5) 20 μM SA, 2 hr; (7) 200 μM SA, 8 hr. One blot was sequentially hybridized with the G1-1 fragment and the β-ATPase gene as a loading control probe. response classes (I-IV) are indicated on the left of the autoradiograms.
as §1
(§3) Fiftytwo were recovered for testing on poly(A)+Northern blots loaded with mRNA derived from cells from each of the treatments.

[1] = tested on: class IV genes (G3-2 and C14-1b); test: as above; type: cell-based; settings: SA at 2, 4, 8 h; 71 μM CHX 5 hrs
Experimental: as §2, §1, §3

class II genes = test: as above; type: cell-based; settings: SA at 2, 4, 8 h; 71 μM CHX 5 hrs; CHX + 200 μM SA
Experimental: as §2, §1, §3

G8-1 = test: Northern analysis of mRNA accumulation in cultured tobacco cells; type: cell-based; settings: SA 0.1 μM to 2 mM
G1-1/EGT = settings: SA; previously shown (Horvath and Chua, 1996); cited from earlier work

Which “C18-1/EREBP1 induction at 0.1 mM versus 1 mM” value (C18-1/EREBP1; 0.1 and 1 mM, approximately 2.5 h) does the source give for `O=C(O)c1ccccc1O` [SA, salicylic acid] here?
Its value is “greater induction at 1mM”.

What about the EC50 (C18-1/EREBP1; Nicotiana tabacum, tobacco cells, SA 0.1 μM to 2 mM, 2-2.5 hr, read-out: concentration of SA required for half of the maximum level of C18-1/EREBP1 expression) of the same molecule?
Its EC50 is 100 to 150 µM.

What about the “response zone of C18-1/EREBP1 to SA concentration” value (C18-1/EREBP1; SA 0.1 μM to 2 mM) of the same molecule?
Its value is “narrow response zone”.

What about the “time of decay of C18-1/EREBP1 mRNA to background levels” value (C18-1/EREBP1; SA time course) of the same molecule?
The value was no more than 4.5 h.

What about the “time of peak C18-1/EREBP1 mRNA” value (C18-1/EREBP1; SA time course) of the same molecule?
The value was 2 h.

And the “mRNA induction of Class I genes” value (Class I genes)?
Its value is “little if any detectable mRNA accumulation”.

What about the “mRNA induction of class IV genes” value [1] of the same molecule?
Its value is “rapid and sustained induction”.

And the “mRNA induction of class II genes” value (class II genes)?
Its value is “rapid and transient”.

And the EC50 (G8-1; Nicotiana tabacum, tobacco cells, 2-2.5 hr, read-out: concentration of SA required for half of the maximum level of G8-1 expression)?
Its EC50 is roughly 1 µM.

And the “response of G8-1 expression to SA concentration range” value (G8-1)?
The value was “activated over a large SA concentration range”.

What about the “time at which G1-1/EGT is induced” value (G1-1/EGT) of the same molecule?
Its value is 20 to 30 min.

What about the “time of peak G1-1/EGT” value (G1-1/EGT) of the same molecule?
The value was 3 h.

Reference: patent US20020039780A1, “Salicyclic acid inducible genes and promoters” (priority 1998, published 2002)
